Consider three compounds from patent publication US8658777B2, “Activated protease indicator” (The University of Tokyo, priority 2007, dated 2014).

Test [1] deals with caspase-3. Put plainly: Real-time in vitro analysis of caspase-3 activity in HeLa cells expressing cyclic Fluc. Format: cell-based. How it is done:
[FIG. 9] Real-time in vitro analysis of caspase-3 activity. Forty eight hours after HeLa cells transfected with pcFluc-DEVD were treated with different concentrations of STS and then the bioluminescence intensities were measured every 5 minutes. The indicated time represents the time after the addition of each agent.
[FIG. 10] Results of the measurement with actinomycin D (ActD) in the same manner as in FIG. 9. Real-time in vitro analysis of capsase-3 activity. Forty eight hours after HeLa cells transfected with pcFluc-DEVD were treated with different concentrations of actinomycin D (ActD) and then the bioluminescence intensities were measured every 5 minutes. The indicated time represents the time after the addition of each agent.
pcFluc-DEVD was transfected in the HeLa cells in a 10-cm Petri dish for 24 hours. The cells were scraped off and divided in five 3-cm Petri dishes, for culturing for 24 hours. The culture medium was replaced with the Hank's balanced salt solution (Gibco) containing 500 μM D-luciferin and 5% FBS. After the five 3-cm Petri dishes were mounted on a photon counter (KRONOS, ATTO, Tokyo, Japan), the cells were stimulated with STS or actinomycin D (Act D, Sigma). The luminescence intensity in each of the Petri dishes was assayed for a cumulative time period of 45 seconds at an interval of 5 minutes.
It is known that the time required for caspase-3 activation in response to extracellular stimuli varies with the type of chemical compounds and its concentration. In order to decide upon a screening time, it is crucial to know when the activity of caspase-3 gives a maximum response after stimulation with such apoptotic chemical regents. […] First, the cyclic Fluc indicator was transiently expressed in HeLa cells; the luminescence intensity upon stimulation with STS at various concentrations was monitored every five minutes in a time course (FIG. 9). […] The rate of increase in the luminescence intensity depended on the STS concentration. […] The decrease in the luminescence signal intensity indicates attenuation of active luciferase by proteolysis in the HeLa cells.

Test [2] concerns caspase-3. Put plainly: In vitro assay of firefly luciferase in HeLa cells transfected with pcFluc-DEVD. Format: cell-based. On the procedure:
[FIG. 7] Quantitative analysis of the Flue activity with STS. After transfection of HeLa cells with pcFluc-DEVD for 48 hours, the cells were treated with various concentrations of STS for two hours. A relative luminescence unit (RLU) was defined as follows: the luminescence intensity from the right side (LumR) was divided by that from the left side (LumL), as RLU (%)=LumR/LumL.
[FIG. 8] Quantitative analysis of the Flue activity with Z-VAD-FMK. The HeLa cells were transfected with pcFluc-DEVD for 48 hours, treated with different concentrations of Z-VAD-FMK or vehicle (0.1% DMSO), and stimulated with various concentrations of STS for two hours. A relative luminescence unit (RLU) was defined as follows: the luminescence intensity from the right side (LumR) was divided by that from the left side (LumL), as RLU (%)=LumR/LumL.
(§1) pcFluc-DEVD and pRL-TK were transfected in the COS-7 cells and the HeLa cells for 48 hours. These cells were treated with STS or a caspase inhibitor Z-VAD-FMK (Sigma) to assay the luciferase activity according to the report (Ozawa, T. et al. (2001) Anal. Chem. 73, 2516-21; Kanno, A. et al. (2006) Anal. Chem. 78, 556-60). The assay time period of Fluc and Renilla reniformis luciferase (Rluc) was 20 seconds. The luminescence from Fluc (LF) was normalized to the luminescence from Rluc (LR), and the resulting value was defined as relative luminescence unit (RLU; RLU=LF/LR). All the assays were done in various wells in a culture plate triplicately, using a luminometer of MiniLuraat LB9506 (Berthold GmbH & Co. KG, Wildbad, Germany). The results are shown as the mean ratio of the RLU value to the RLU value of cells treated with a solvent (0.1% DMSO), together with the standard deviations.
To show the feasibility of cyclic Fluc for characterizing apoptotic regents, the sensitivity of cyclic Fluc was examined, using HeLa cells. The cells were transfected with pcFluc-DEVD, for transient expression of chimera proteins, which were stimulated with different concentrations of STS for two hours. […]

For test [3], the system named is caspase-3. As to the kind of experiment: In vitro assay of firefly luciferase in COS-7 cells transfected with pcFluc-DEVD. The test is classed as cell-based. How it is done:
[FIG. 5] Quantitative analysis of the Fluc activity with STS and Z-VAD-FMK. After transfection of COS-7 cells with pcFluc-DEVD for 48 hours, the cells were treated with 100 μM Z-VAD-FMK or vehicle (0.1% DMSO) for an hour and then stimulated with various concentrations of STS for two hours. A relative luminescence unit (RLU) was defined as follows: the luminescence intensity from the right side (LumR) was divided by that from the left side (LumL), as RLU (%)=LumR/LumL.
as §1
In the Example, continuously, it was examined whether the activity of the cyclic Fluc was restored after stimulation with STS. COS-7 cells transfected with pcFluc-DEVD were stimulated with STS or a caspase inhibitor Z-VAD-FMK, or with both STS and Z-VAD-FMK. The cells were harvested and their lysates were mixed with a Fluc substrate, D-luciferin. […] The luminescence signals in the presence of Z-VAD-FMK were smaller than the signals that originated from the cells in the absence of STS and Z-VAD-FMK.

For test [4], the system named is caspase-3. Put plainly: In vivo imaging of caspase-3 activity in living mice implanted with HeLa cells expressing cyclic Fluc. Details: species or system BALB/c-nude mouse. The source says:
[FIG. 11] In vivo luminescence assay of mice carrying transiently transfected HeLa cells. The mice were subcutaneously implanted with HeLa cells expressing cyclic Fluc (right side) and full-length Fluc (left side). Images of the mice were taken at the indicated times after intraperitoneal injection of STS. A representative of three mice is shown.
[FIG. 12] Time-dependent changes in the photon count from the implanted site in FIG. 11. The relative luminescence unit (RLU) is shown on the longitudinal axis, where RLU=LumR/LumL provided that luminescence intensity from the right side (LumR) is divided with the luminescence intensity from the left side (LumL), as shown in (A). A relative luminescence unit (RLU) was defined as follows: the luminescence intensity from the right side (LumR) was divided by that from the left side (LumL), as RLU (%)=LumR/LumL.
pX8luc or pcFluc-DEVD was transfected in HeLa cells for 48 hours. The cells were harvested and suspended in a phosphate buffered saline (PBS), from which 1.0×10^6 cells were transplanted in two different dorsal positions of a BALB/c-nude mouse (female, five-week-old, body weight of about 17 to 20 g). After the cell transplantation, STS dissolved in DMSO was intraperitoneally injected. Immediately thereafter, a PBS buffer containing D-luciferin (600 mg/kg body weight) was intraperitoneally injected, to assay the luminescence from the mouse, using a CCD camera (IVIS200 system, Xenogen, Alameda, Calif.). Photons emitted from the transplanted cells were counted and cumulatively recorded over one minute. Image analysis was done, using the software LIVING IMAGE (Xenogen). So as to quantitatively determine the assayed luminescence, a region of interest was extracted from the cell-transplanted regions, to evaluate the luminescence intensity (photon·second^−1·cm^−2). […]
To quantitatively evaluate the effect of STS on caspase-3 activity, a relative luminescence unit (RLU) was defined as follows; the luminescence intensity from the right side (LumR) was divided by that from the left side (LumL), as RLU (%)=LumR/LumL. […]

Test [5] deals with caspase-3. As to the kind of experiment: Fluc activity in caspase-3-deficient MCF-7 cells transfected with pcFluc-DEVD with or without pCaspase-3. Format: cell-based.
Method: Analysis of the Flue activity in the caspase-3-deficient MCF-7 cells. MCF-7 cells were transfected with only pcFluc-DEVD (left) or with both pcFluc-DEVD and pCaspase-3 (right). The cells were incubated for 48 hours and the luminescence intensities were evaluated at the indicated times after stimulation with 100 nM STS. A relative luminescence unit (RLU) was defined as follows: the luminescence intensity from the right side (LumR) was divided by that from the left side (LumL), as RLU (%)=LumR/LumL.
Test [6] deals with caspase-3. As to the kind of experiment: Western blot analysis of cyclic and linear Fluc in COS-7 cells transfected with pcFluc-DEVD. Format: cell-based. The note with it: indicated concentrations of STS for two hours, Western blot (FIG. 4). (A western blot detects proteins with antibodies after separation by electrophoresis.)
Method: Western blot analysis of Fluc in the circular form and in the linear form. COS-7 cells transfected with pcFluc-DEVD for 48 hours were treated with the indicated concentrations of STS for two hours and harvested. The sample was electrophoresed, transferred on a nitrocellulose membrane and stained with a specific antibody.
pcFluc-DEVD was transfected in the COS-7 cells for 48 hours. The cells were stimulated with staurosporine (STS; Sigma, St. Louise, Mo.) and then disrupted in a lysis buffer (1% SDS, 10% glycerol, 10% 2-mercaptoethanol, 0.001% Bromophenol Blue, 50 mM Tris/HCl, pH 6.8). The sample was electrophoresed with 10% SDS polyacrylamide gel, which was then transferred on a nitrocellulose membrane (Hybond-ECL, GE Healthcare, Buckinghamshire, England). Fluc was detected with a polyclonal anti-luciferase antibody (Promega); the immunoreactivity was evaluated, using horseradish peroxidase (HRP) conjugated to an anti-goat IgG antibody (Promega). The HRP activity was visualized, using an ECL advance Western blotting detection kit (GE Healthcare) with LAS-1000 plus image analyzer (Fuji Film Co., Tokyo, Japan).
To assess whether the fusion protein expressed by pcFluc-DEVD produces cyclic Fluc by protein splicing, herein, pcFluc-DEVD was transfected in COS-7 cells and chimera proteins were transiently expressed for 48 hours. The spliced products were examined by Western blot (FIG. 3). […]
Setting [7] is: STS 100 μg/kg of body weight i.p.

*1 amine or outer side, *2 acyl side, *3 side chain or, on linkers, in order; H or OH if unused. Where a SMILES comes first, the peptide text is derived from it. Bridges are numbered along the chain shown (N, C = ends). Roman numbers before positions name the chains, in order. [ ]: non-standard residue; d: D form. The star is where a group is joined. Actinocin(9to1) = Cc1c2oc3c(C)ccc(C(=O)[*:1])c3nc-2c(C(=O)[*:2])c(N)c1=O; NMeV = CN[C@H](C(=O)O)C(C)C; Cbz = O=C(OCc1ccccc1)*; Sar = CNCC(=O)O; CH2F = FC*

On to `Cc1c2oc3c(C)ccc(C(=O)N[C@@H]4C(=O)N[C@H](C(C)C)C(=O)N5CCC[C@H]5C(=O)N(C)CC(=O)N(C)[C@@H](C(C)C)C(=O)O[C@@H]4C)c3nc-2c(C(=O)N[C@@H]2C(=O)N[C@H](C(C)C)C(=O)N3CCC[C@H]3C(=O)N(C)CC(=O)N(C)[C@@H](C(C)C)C(=O)O[C@@H]2C)c(N)c1=O` [ActD, actinomycin D] (I: T[dV]P[Sar][NMeV] / II: T[dV]P[Sar][NMeV]; ester I:1-I:C, II:1-II:C; linker I:N-II:N via Actinocin(9to1)), for which the “time period over which the luminescence signal intensity increased” value in the test with caspase-3 [1] (ActD, then gradually decreased (FIG. 10)) fell in the range of 25 to 120 min.
`CN[C@@H]1C[C@H]2O[C@@](C)([C@@H]1OC)n1c3ccccc3c3c4c(c5c6ccccc6n2c5c31)C(=O)NC4` [STS, staurosporine]: the “concentration range inducing an increase in the bioluminescence intensity” value in the test on caspase-3 [2] (HeLa cells, STS for two hours (FIG. 7)) lay within 10 to 1000 nM. Further, the “time at which luminescence signals reach a maximum after stimulation” value with caspase-3 [1] (STS at various concentrations (FIG. 9)) came to 100 min. Besides, the “duration of initial slow increase in the luminescence signals” value in the test with caspase-3 [1] (STS at various concentrations, measured every five minutes (FIG. 9)) was 25 min. In addition, in the test with caspase-3 [3] (COS-7 cells, various concentrations of STS for two hours (FIG. 5)), the luminescence signals entry is reported as “increased with increase in concentrations of the STS”. In the test on caspase-3 [4] (setting [7]), the “luminescence signal from the left side (HeLa cells expressing full-length Fluc, control)” value was “no significant change” and the “luminescence signal intensity from the right side (implanted cyclic Fluc cells)” value was “significant increase”. Moreover, the “maximum RLU ratio in comparison to the RLU before STS stimulation” value in the test on caspase-3 [4] (two hours after the intraperitoneal STS injection, RLU=LumR/LumL (FIG. 12)) is listed as 300 to 400%. Moreover, in the test with caspase-3 [5] (MCF-7 cells cotransfected with pcFluc-DEVD and pCaspase-3, stimulation with STS), the “luminescence from the cells” value is given as “significantly increased”. In the test on caspase-3 [5] (MCF-7 cells transfected with pcFluc-DEVD only, 1 μM STS for two hours), the “change in the bioluminescence intensity” value is given as “little change”. Further, the “Formation of the linear form of Fluc” value with caspase-3 [6] is “dependent on the concentration of STS”.
In the case of `COC(=O)C[C@H](NC(=O)[C@H](C)NC(=O)[C@@H](NC(=O)OCc1ccccc1)C(C)C)C(=O)CF` [Z-VAD-FMK] (Cbz-Val-Ala-Asp(OMe)-CH2F), the “concentrations at which inhibitory effect on the cleavage of the cyclic Fluc was observed” value in the test on caspase-3 [2] (HeLa cells stimulated with STS for two hours (FIG. 8)) is “higher than 10 μM”. In the test with caspase-3 [2] (HeLa cells, 100 μM Z-VAD-FMK, STS stimulation), the “cleavage of the cyclic Fluc” value is reported as “completely suppressed”. In addition, in the test on caspase-3 [3] (COS-7 cells treated with 100 μM Z-VAD-FMK (FIG. 5)), the “luminescence signal relative to signals from vehicle-treated cells” value is on record as 50%. In addition, the luminescence result in the test on caspase-3 [3] (COS-7 cells, 100 μM Z-VAD-FMK, in the presence or absence of 1 μM STS) was “no increase in luminescence”. For the same compound, the “basal caspase-3 activities” value in the test with caspase-3 [3] (COS-7 cells, 100 μM Z-VAD-FMK, no STS) is “completely inhibited”.
